According to DBAASP:
≈ marks a conversion by molar mass, not a printed value. Where “and” joins values, the source holds several entries; their conditions need not be identical. Identical values can stand only once. One block for each compound: values may come before it.

Tests used:
Assay in all cases: ≥ marks a high value that may be exact or a test limit, other limits are often not marked, values filed in µg/mL are converted to µM
Bacillus megaterium Bm11 = tested on: Bacillus megaterium Bm11
Escherichia coli D21 = tested on: Escherichia coli D21
Escherichia coli ML-35 = tested on: Escherichia coli ML-35
[1] = tested on: Salmonella enterica subsp. enterica serovar Typhimurium ATCC 14028
[2] = tested on: Serratia marcescens ATCC 8100
[3] = tested on: Staphylococcus epidermidis ATCC 12228
Bacillus subtilis = tested on: Bacillus subtilis
Enterococcus faecalis = tested on: Enterococcus faecalis
Escherichia coli O111:B4 = tested on: Escherichia coli O111:B4
[4] = tested on: Pseudomonas aeruginosa H103
[5] = tested on: Salmonella typhimurium C610
[6] = tested on: Staphylococcus aureus K147
[7] = tested on: Staphylococcus aureus SAP 0017
[8] = tested on: Staphylococcus epidermidis
[9] = tested on: Candida albicans NCPF 1467
[10] = tested on: Escherichia coli NCTC 10418
[11] = tested on: Pseudomonas aeruginosa ATCC 27853
[12] = tested on: Staphylococcus aureus ATCC 12493
[13] = tested on: Staphylococcus aureus NCTC 10788
[14] = tested on: Candida albicans NCYC 1467
[15] = tested on: Escherichia coli K12 MG1655
Candida albicans = tested on: Candida albicans
[16] = tested on: Candida krusei CGMCC 2.1857
[17] = tested on: Candida parapsilosis CGMCC 2.3989
[18] = tested on: Candida tropicalis CGMCC 2.1975
Escherichia coli 1005 = tested on: Escherichia coli 1005
[19] = tested on: Salmonella enterica subsp. enterica serovar Pullorum ATCC 7913
[20] = tested on: Staphylococcus aureus ATCC 25923
[21] = tested on: Staphylococcus aureus ATCC 29213
[22] = tested on: Staphylococcus aureus ATCC 43300
[23] = tested on: Bacillus subtilis CMCC 63501
[24] = tested on: Enterococcus faecalis ATCC 29212
[25] = tested on: Escherichia coli ATCC 25922
Escherichia coli UB1005 = tested on: Escherichia coli UB1005
[26] = tested on: Salmonella enterica subsp. enterica serovar Pullorum C79-13
[27] = tested on: Salmonella typhimurium ATCC 7731
[28] = tested on: Candida albicans CGMCC 2.2086

SMILES: CC(C)C[C@H](NC(=O)[C@H](Cc1ccc(O)cc1)NC(=O)[C@@H]1CCCN1C(=O)[C@@H]1CCCN1C(=O)[C@H](CCCN=C(N)N)NC(=O)[C@@H]1CCCN1C(=O)[C@H](CCCCN)NC(=O)[C@H](CCCCN)NC(=O)[C@@H](N)CCCCN)C(=O)N1CCC[C@H]1C(=O)N[C@@H](CCCN=C(N)N)C(=O)N1CCC[C@H]1C(=O)N[C@@H](CCCN=C(N)N)C(=O)N1CCC[C@H]1C(=O)N1CCC[C@H]1C(=O)O [KKKPRPPYLPRPRPP]
MIC (Bacillus megaterium Bm11): 16 µM (≈ 29.2 µg/mL)
MIC (Escherichia coli D21): 1 µM (≈ 1.83 µg/mL)
MIC (Escherichia coli ML-35): 2 µM (≈ 3.65 µg/mL)
MIC [1]: 0.5 µM (≈ 0.914 µg/mL)
MIC [2]: 8 µM (≈ 14.6 µg/mL)
MIC [3]: > 64 µM

SMILES: CC[C@H](C)[C@H](NC(=O)CN)C(=O)NCC(=O)NCC(=O)N[C@@H](C)C(=O)N[C@@H](CC(C)C)C(=O)N[C@@H](CC(C)C)C(=O)N[C@@H](CO)C(=O)N[C@@H](Cc1ccccc1)C(=O)NCC(=O)N[C@@H](CCCCN)C(=O)N[C@@H](CO)C(=O)N[C@@H](C)C(=O)N[C@@H](CC(C)C)C(=O)N[C@@H](CCCCN)C(=O)NCC(=O)N[C@@H](CC(C)C)C(=O)N[C@@H](C)C(=O)N[C@@H](CCCCN)C(=O)NCC(=O)N[C@@H](CC(C)C)C(=O)N[C@@H](C)C(=O)N[C@@H](CCC(=O)O)C(=O)N[C@@H](Cc1cnc[nH]1)C(=O)N[C@@H](Cc1ccccc1)C(N)=O [GIGGALLSFGKSALKGLAKGLAEHF]
MIC [9]: 1.64 µM (≈ 4 µg/mL)
MIC [10]: 6.55 µM (≈ 16 µg/mL)
MIC [11]: 26.2 µM (≈ 64 µg/mL)
MIC [12]: 6.55 µM (≈ 16 µg/mL)
MIC [13]: 1.64 µM (≈ 4 µg/mL)

SMILES: CC[C@H](C)[C@@H]1NC(=O)[C@H](CO)NC(=O)[C@H](CCCCN)NC(=O)[C@H]([C@@H](C)O)NC(=O)[C@H](Cc2c[nH]c3ccccc23)NC(=O)[C@@H](NC(=O)CNC(=O)[C@H](CCCN=C(N)N)NC(=O)[C@H](CC(C)C)NC(=O)[C@H](C)N)CSSC[C@@H](C(=O)N[C@@H](CCCCN)C(N)=O)NC(=O)[C@@H]2CCCN2C(=O)[C@H](CCCCN)NC(=O)[C@@H]2CCCN2C(=O)[C@@H]2CCCN2C1=O [ALRGCWTKSIPPKPCK]
MIC [14]: ≥ 512 µM
MIC [10]: ≥ 512 µM
MIC [11]: > 512 µM
MIC [12]: ≥ 512 µM
MIC [13]: ≥ 512 µM

SMILES: NC(=O)[C@H](CCCN=C(N)N)NC(=O)[C@H](Cc1c[nH]c2ccccc12)NC(=O)[C@H](Cc1c[nH]c2ccccc12)NC(=O)[C@H](CCCN=C(N)N)NC(=O)[C@H](CCCN=C(N)N)NC(=O)[C@H](Cc1c[nH]c2ccccc12)NC(=O)[C@H](CCCN=C(N)N)NC(=O)[C@H](CCCN=C(N)N)NC(=O)[C@H](Cc1c[nH]c2ccccc12)NC(=O)[C@H](Cc1c[nH]c2ccccc12)NC(=O)[C@@H](N)CCCN=C(N)N [RWWRRWRRWWR]
MIC (Candida albicans): 4 µM (≈ 7.54 µg/mL)
MIC [16]: 2 µM (≈ 3.77 µg/mL)
MIC [17]: 16 µM (≈ 30.2 µg/mL)
MIC [18]: 2 µM (≈ 3.77 µg/mL)
MIC (Escherichia coli 1005): 8 µM (≈ 15.1 µg/mL)
MIC [19]: 4 µM (≈ 7.54 µg/mL)
MIC [1]: 8 µM (≈ 15.1 µg/mL)
MIC [20]: 8 µM (≈ 15.1 µg/mL)
MIC [21]: 4 µM (≈ 7.54 µg/mL)
MIC [22]: 4 µM (≈ 7.54 µg/mL)
MIC [3]: 4 µM (≈ 7.54 µg/mL)

SMILES: CC[C@H](C)[C@H](N)C(=O)N[C@H](C(=O)N[C@@H](CCCN=C(N)N)C(=O)N[C@@H](CCCN=C(N)N)C(=O)N[C@H](C(=O)N[C@@H](CCCN=C(N)N)C(=O)N[C@@H](CCCN=C(N)N)C(=O)N[C@H](C(=O)N[C@H](C(N)=O)[C@@H](C)CC)[C@@H](C)CC)[C@@H](C)CC)[C@@H](C)CC [IIRRIRRII]
MIC [28]: ≥ 64 µM
MIC (Candida albicans): > 64 µM
MIC [16]: 16 µM (≈ 19.3 µg/mL)
MIC [17]: ≥ 64 µM
MIC [18]: 4 µM (≈ 4.83 µg/mL)
MIC (Escherichia coli 1005): 16 µM (≈ 19.3 µg/mL)
MIC [25]: 32 µM and 64 µM
MIC [19]: ≥ 32 µM
MIC [1]: 64 µM (≈ 77.3 µg/mL)
MIC [20]: > 64 µM
MIC [21]: 64 µM (≈ 77.3 µg/mL)
MIC [22]: 64 µM (≈ 77.3 µg/mL)
MIC [3]: 64 µM (≈ 77.3 µg/mL)

Further lines, results first:

MIC (Bacillus subtilis): 5.77 µM (≈ 16 µg/mL)
MIC (Enterococcus faecalis): ≥ 46.2 µM
MIC (Escherichia coli O111:B4): 2.89 µM (≈ 8 µg/mL)
MIC [4]: 5.77 µM (≈ 16 µg/mL)
MIC [5]: 2.89 µM (≈ 8 µg/mL)
MIC [6]: 11.5 µM (≈ 32 µg/mL)
MIC [7]: 11.5 µM (≈ 32 µg/mL)
MIC [8]: 5.77 µM (≈ 16 µg/mL)
SMILES: CC[C@H](C)[C@H](NC(=O)[C@H](CC(C)C)NC(=O)[C@H](C)NC(=O)[C@@H]1CCCN1C(=O)[C@H](CC(C)C)NC(=O)CNC(=O)[C@@H](NC(=O)[C@@H](NC(=O)[C@H](CC(C)C)NC(=O)[C@@H](NC(=O)[C@@H](NC(=O)[C@H](CC(C)C)NC(=O)[C@@H](NC(=O)[C@H](C)NC(=O)CNC(=O)[C@@H](NC(=O)CNC(=O)[C@H](CCCCN)NC(=O)[C@H](CCCCN)NC(=O)[C@H](CCCCN)NC(=O)[C@H](Cc1ccccc1)NC(=O)[C@H](CC(C)C)NC(=O)[C@H](CCCCN)NC(=O)[C@H](Cc1c[nH]c2ccccc12)NC(=O)[C@@H](N)CCCCN)[C@@H](C)O)C(C)C)[C@@H](C)O)C(C)C)[C@@H](C)O)[C@@H](C)O)C(=O)N[C@@H](CO)C(=O)O [KWKLFKKKGTGAVLTVLTTGLPALIS]

MIC [15]: ≥ 63.6 µM
SMILES: CC(C)C[C@H](NC(=O)[C@H](Cc1ccccc1)NC(=O)[C@H](CCCCN)NC(=O)[C@@H](N)CO)C(=O)N[C@@H](CO)C(=O)N[C@@H](CCCCN)C(=O)N[C@@H](CCCCN)C(=O)N1CCC[C@H]1C(=O)N[C@@H](CCCCN)C(=O)N[C@@H](CCCCN)C(=O)N[C@@H](CC(C)C)C(=O)N[C@@H](Cc1ccccc1)C(=O)N[C@@H](Cc1c[nH]c2ccccc12)C(=O)N[C@@H](Cc1ccccc1)C(=O)N[C@@H](CCCN=C(N)N)C(=O)N[C@@H](C)C(=O)O [SKFLSKKPKKLFWFRA]

MIC [23]: 16 µM (≈ 29.9 µg/mL)
MIC [24]: 32 µM (≈ 59.8 µg/mL)
MIC [25]: 8 µM (≈ 14.9 µg/mL)
MIC (Escherichia coli UB1005): 8 µM (≈ 14.9 µg/mL)
MIC [11]: 16 µM (≈ 29.9 µg/mL)
MIC [26]: 8 µM (≈ 14.9 µg/mL)
MIC [27]: ≥ 64 µM
MIC [21]: 16 µM (≈ 29.9 µg/mL)
MIC [22]: 32 µM (≈ 59.8 µg/mL)
MIC [3]: 32 µM (≈ 59.8 µg/mL)
SMILES: CC[C@H](C)[C@H](N)C(=O)N[C@@H](Cc1cnc[nH]1)C(=O)N[C@@H](CCCCN)C(=O)N[C@@H](Cc1ccccc1)C(=O)N[C@@H](Cc1c[nH]c2ccccc12)C(=O)N[C@@H](CCCN=C(N)N)C(=O)NCC(=O)NCC(=O)N[C@@H](CCCN=C(N)N)C(=O)N[C@@H](Cc1c[nH]c2ccccc12)C(=O)N[C@@H](Cc1ccccc1)C(=O)N[C@@H](CCCCN)C(=O)N[C@@H](Cc1cnc[nH]1)C(=O)N[C@H](C(N)=O)[C@@H](C)CC [IHKFWRGGRWFKHI]
